Tests used:
[1] = test system: ZIKV; assay: ZIKV inhibitory viral plaque reduction assay in Vero E6 cells; format: cell-based, Zika virus
[2] = Stability test in human plasma; format: in vitro ADME; details: pH 7.4, 37 °C, up to 24 h, read-out: Plasma Stab. (T1/2, h ± SD) (converted)
Experimental: Finally, compounds were incubated in human plasma at 37 °C for 24 h. […] Taken together, stability studies confirmed that the series is suitable for further development.
For the ADME property determination, an Agilent 1260 Infinity HPLC-DAD interfaced with an Agilent MSD 6130 (Agilent Technologies, Palo Alto, CA, USA) was used. Chromatographic conditions were optimized using a Phenomenex Kinetex C18-100 Å column (150 × 4.6 mm) with 5 µm particle size and gradient elution with a binary solution (eluent A: H2O; eluent B: ACN; both eluents were acidified with formic acid 0.1% v/v) at room temperature. The LC analyses started with 5% of B (from t = 0 to t = 1 min), then B was increased to 95% (from t = 1 to t = 10 min) and then kept at 95% (from t = 10 to t = 19 min) and finally returned to initial conditions in 1.0 min. The flow rate was 0.6 mL/min and the injection volume was 10 µL.
A stock solution of the target compound in DMSO (2 mM) was incubated in a test tube with pooled human plasma (55.7 mg protein/mL) and HEPES buffer (25 mM, 140 mM NaCl pH 7.4) up to a final volume of 1.0 mL. The mixture was incubated at 37 °C, and at set time points (0.0, 0.5, 1, 4, 8, 24 h), samples of 50 µL were taken, mixed with 400 µL of ACN to stop the reaction of plasmatic esterases, and centrifuged at 5000 rpm for 15 min. The supernatant was removed and analyzed using the LC-UV/MS method previously described. The half-life (t½) was calculated according to the following equation: t½=ln 2/k where k represents the substrate elimination constant. For each compound, the determination was performed in three independent experiments.

[3] = target: T1, ZIKV NS5 MTase (Zika virus, UniProt A0A024B7W1); assay: ZIKV NS5 MTase radioactive filter-binding assay (2′-O-MTase activity); format: biochemical; details: at least two experiments, read-out: IC50 (half-maximal inhibitory enzymatic concentration)
T1 construct: KJ776791.2, aa 4–278; His6 (N); made in house; host or cells: Escherichia coli T7 Express Iq
Experimental: Selected compounds were evaluated in enzymatic inhibition assays against both ZIKV and DENV 2′-O-MTase activity (For details, see Figure S3 in Supplementary Materials). The screening of compounds at a concentration of 50 µM highlighted a higher inhibitory activity against ZIKV MTase. We thus focused our efforts on ZIKV and determined the IC50 values against ZIKV MTase.
Expression and purification of ZIKV NS5 MTase: The coding sequence of the ZIKV NS5 MTase domain (strain H/PF/2013, GenBank accession no. KJ776791.2, aa 4–278) was synthesized by Genscript and cloned into a pQE30 vector (Qiagen, Hilden, Germany) with an N-terminal His6 tag. The protein was expressed and purified following the procedures described in Coutard et al..
Briefly, after expression in Escherichia coli T7 Express Iq (New England BioLabs) in Terrific Broth at 17 °C overnight, bacterial pellets were resuspended in lysis buffer (50 mM Tris-HCl [pH 8], 300 mM NaCl, 5% glycerol, 0.1% Triton, 10 μg/mL DNase I, 2 tablets of EDTA-free antiprotease cocktail [Roche] and 0.25 mg/mL lysozyme). Following cell lysis and clarification, the protein was purified by affinity on immobilized metal affinity chromatography (IMAC, His prep column [GE Healthcare]), followed by size exclusion chromatography (Superdex S75 HR 16/20 column [GE Healthcare]). The NS5-MTase was concentrated and stored at −20 °C after adding glycerol to a final concentration of 40%.
Filter-binding assay: The transfer of tritiated methyl from ^[3H]SAM onto RNA substrate was monitored by a filter-binding assay (FBA), performed according to the method described previously. FBA was carried out in a reaction mixture [40 mM Tris-HCl (pH 8.0), 1 mM DTT, 2 μM SAM, and 0.1 μM 3H-SAM (Perkin Elmer, Shelton, CT, USA)] in the presence of 0.7 μM synthetic ^7mGpppAC4 and ZIKV NS5 MTase (500 nM). The enzyme was first mixed with an increasing concentration of inhibitors, previously suspended in dimethyl sulfoxide (DMSO), before the addition of RNA substrate and SAM, and then incubated at 30 °C. The final DMSO concentration in reactions was 5%. Reaction mixtures were stopped after 30 min incubation by their 10-fold dilution in ice-cold water. Samples were transferred to diethylaminoethyl (DEAE) filtermat (Perkin Elmer, Shelton, CT, USA) using a Filtermat Harvester (Packard Instruments, Meriden, CT, USA). The RNA-retaining mats were washed twice with 10 mM ammonium formate pH 8.0, twice with water, and once with ethanol before drying. They were soaked with scintillation fluid (Perkin Elmer, Shelton, CT, USA), and 3H-methyl transfer to the RNA substrates was determined using a Wallac MicroBeta TriLux Liquid Scintillation Counter (Perkin Elmer, Shelton, CT, USA). For IC50 measurements, values were normalized and fitted with Prism (GraphPad software version 10.1.1) using the following equation: Y = 100/(1 + ((X/IC50) ^ Hillslope)).

[4] = Cytotoxicity assay (MTT) on Vero E6 cells; format: cell-based; details: African green monkey; VERO E6 cells, MTT, 3 days; read-out: CC50 ± SD (half-maximal cytotoxic concentration)
Experimental: Compounds characterized by the best anti-enzymatic activity were tested against ZIKV in cellular assays. VERO E6 cells were infected with ZIKV at a multiplicity of infection (M.O.I.) of 0.1, and their activities were evaluated by a plaque reduction assay three days post-infection. Ribavirin was used as a reference compound. As reported in Table 2, compound 1, identified in the first screening, was unable to inhibit viral replication up to a 100 μM concentration. […] The cytotoxicity of the series was determined on the same cell line. […] Their selectivity indexes were calculated as the ratio between CC50 and IC50 values; the results highlight their promising safety profile.
Monolayers of 2.5 × 10^4 Vero E6 cells per well were grown in flat-bottom 96-well culture plates and allowed to adhere overnight. Then, when the cell layers were confluent, the medium was removed, the wells were washed twice with PBS, treated with 100 µL of DMEM with 10 µL DMSO alone (cell positive control) or with various concentrations of anti-NS5 inhibitory compounds under study (compound final concentrations of 100, 10, 1, 0.1, and 0.01 μM), and incubated for 3 days at 37 °C in a CO2. After treatment, an MTT (3-(4,5-dimethylthiazol-2-yl)-2,5-diphenyltetrazolium bromide) kit (Roche, Milan, Italy) was used according to the supplier’s instructions, and the absorbance of each well was determined using a microplate spectrophotometer at a wavelength of 570 nm. Cytotoxicity was calculated by dividing the average optical density of treated samples by the average of DMSO-treated samples (cell positive control).

T1 sequence (A0A024B7W1 2524-2798): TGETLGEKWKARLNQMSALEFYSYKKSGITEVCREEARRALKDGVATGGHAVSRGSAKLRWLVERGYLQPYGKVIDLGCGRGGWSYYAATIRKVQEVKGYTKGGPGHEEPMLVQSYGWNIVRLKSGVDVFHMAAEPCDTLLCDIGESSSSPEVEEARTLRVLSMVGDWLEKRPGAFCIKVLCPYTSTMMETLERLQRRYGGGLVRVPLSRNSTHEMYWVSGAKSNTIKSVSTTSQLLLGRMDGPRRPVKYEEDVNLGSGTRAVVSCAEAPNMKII

CN1C(=O)c2ccc(NC(=O)c3cc4cccc(Cl)c4s3)cc2C1=O [Compound 17]
SI (Selectivity Index, ratio between CC50 and IC50) ([1]; VERO E6 cells): >200
IC50 ([1]; Zika virus, Vero C1008, read-out: IC50 ± SD (half-maximal inhibitory concentration, ZIKV plaque reduction)): 0.5 ± 0.1 µM
half-life [2]: > 24 h
IC50 [3]: 11.4 µM
CC50 at 3 days [4]: > 100 µM
